Reference: PubChem BioAssay (NCI)
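Growth conditions: 96-well plates. Treatment: test compound, 48 hours, 5 concentrations. Analysis: linear interpolation between bracketing concentrations; unreached endpoints set to highest concentration. Definition used: TGI = concentration required for complete inhibition of growth.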

Tests used:
Experiment in all cases: NCI tumour cell line growth inhibition, 48 h
HS 578T breast = system: HS 578T breast
SF-268 CNS = system: SF-268 CNS
U251 CNS = system: U251 CNS
BT-549 breast = system: BT-549 breast
RPMI-8226 leukemia = system: RPMI-8226 leukemia
UO-31 renal = system: UO-31 renal
SK-MEL-5 melanoma = system: SK-MEL-5 melanoma
MDA-N = system: MDA-N
MCF7 breast = system: MCF7 breast
MDA-MB-231 breast = system: MDA-MB-231 breast
ACHN renal = system: ACHN renal

| Compound | TGI (HS 578T breast) [µM] | TGI (SF-268 CNS) [µM] | TGI (U251 CNS) [µM] | TGI (BT-549 breast) [µM] | TGI (RPMI-8226 leukemia) [µM] | TGI (UO-31 renal) [µM] | TGI (SK-MEL-5 melanoma) [µM] | TGI (MDA-N) [µM] | TGI (MCF7 breast) [µM] | TGI (MDA-MB-231 breast) [µM] | TGI (ACHN renal) [µM] |
| --- | --- | --- | --- | --- | --- | --- | --- | --- | --- | --- | --- |
| O=S(c1ccc(Cl)cc1)c1ccccc1C1=NCCN1 (stereo unspecified) | > 100 | > 100 | > 100 | > 100 | > 100 | > 100 | > 100 | > 100 | > 100 | > 100 | > 100 |
| COc1cc(C2c3cc(OC)c(OC)c(O)c3C(=O)C3CCC(=O)N32)cc(OC)c1OC (stereo unspecified) | > 100 | > 100 | > 100 | 91.3 | > 100 |  | > 100 | 34.5 | > 100 | > 100 | > 100 |
| CC(=O)OCC1OC(n2c(N)c(C#N)c(-c3cccc(Cl)c3)c(C#N)c2=S)C(OC(C)=O)C(OC(C)=O)C1OC(C)=O (stereo unspecified) | 91.5 | 39.4 | 78.9 | 70.8 | 39.7 | > 100 | 30.3 | 54.7 | > 100 | 50.2 | > 100 |
| CC(=O)c1ccc2c3c1O[C@H]1c4[nH]c5ccccc5c4C[C@@]4(O)[C@@H](C2)N(CC2CC2)CC[C@]314 | 15.2 | 28.8 | 26.1 | 29.6 | 45.1 | 28.7 | 31.8 | 34.6 | 30.4 | 25.7 | 30.9 |
| CCOC1NC(/N=C/c2ccc(OC)cc2)=C(C#N)C1C#N (stereo unspecified) | > 100 | > 100 | > 100 | 73.5 | > 100 | > 100 | > 100 | > 100 | > 100 | > 100 | > 100 |
| COc1ccc(N2N=NN(C(C)C)/C2=C(/Cl)c2nnnn2-c2ccc(OC)cc2)cc1 | 52.6 | 34.6 | 33.7 | 29.7 | > 61.2 | 10.8 | 28.7 | 27.4 | 22.6 | 22.6 | 30.7 |
| COC1=CC(=O)c2nc3ccccc3c3ccnc1c23 | > 47 | > 44.2 | > 67.3 | 29.6 | > 65.5 | > 50.2 | 2.82 | 0.448 | 15.2 | > 69 | > 65.4 |
| CC(=O)OCC1OC(SC2=NC(=O)/C(=C/c3ccccc3)S2)C(OC(C)=O)C(OC(C)=O)C1OC(C)=O (stereo unspecified) | 75.7 | 52.3 | 91 | 78.9 | 66.3 | 52.8 | 42.8 | > 100 | 52.2 | 44.5 | > 100 |
| CN(/N=C/c1ccc(Cl)cc1)C1=NCCCCN1 | > 100 | > 100 | > 100 | > 100 | > 100 | > 100 | > 100 | > 100 | > 100 | > 100 | > 100 |
| Cc1ccc2c(=O)cc(Cc3csc4ccccc34)[nH]c2n1 | 46.9 | > 100 | > 100 | 66.4 | > 100 | 80.1 | 32.4 | > 100 | > 100 | > 100 |  |
| CCOC(=O)C(NC(=O)CC)(Nc1ccc(S(=O)(=O)Nc2ccc(OC)nn2)cc1)C(F)(F)F (stereo unspecified) | > 100 | > 100 | > 100 | > 100 | > 100 | > 100 | > 100 | > 100 | > 100 | > 100 | > 100 |
| CCN(CC)c1ccc2cc(C(N)=O)c(=Nc3ccc(F)cc3)oc2c1 | > 100 | > 100 | > 100 | > 100 | > 100 | > 100 | > 100 | > 100 | > 100 | 88.5 | > 100 |
| COc1ccc(Cn2c3ccc([N+](=O)[O-])cc3c(=O)n2Cc2ccccn2)cc1 | > 100 | > 100 | > 100 | > 100 | > 100 | > 100 | 83.9 | > 100 | > 100 | > 100 | > 100 |
| CC(C)C1=C(Cc2ccccc2)C(=O)O/C1=C\c1ccc(O)c(Cl)c1 | 33.9 | 30.4 | 30.3 | 36.7 | 28.1 | 27.5 | 31.2 | 30.1 | 30.3 | 29.9 | 28.1 |
| S=C(N/N=C(\C(=N/NC(=S)N1CCCCC1)c1ccccn1)c1ccccn1)N1CCCCC1 | > 100 | > 100 | > 100 | > 100 | > 100 | > 100 | > 100 | > 100 | > 100 | > 100 | 91.6 |
| CC1(C)CN=CC(C)(OCc2ccccc2)C(=O)NC(C)(C)CN=CC(C)(OCc2ccccc2)C(=O)N1 (stereo unspecified) | > 10 | > 10 | > 10 | > 10 | > 10 | > 10 | > 10 | > 10 | > 10 | > 10 | > 10 |
| O=C1CCCCN1C(=O)c1ccc([N+](=O)[O-])cc1 | > 100 | > 100 | > 100 | > 100 | > 100 | > 100 | > 100 | > 100 | > 100 | > 100 | > 100 |
| COC12C=CC(CC1)C(C)(C)C2OS(C)(=O)=O (stereo unspecified) | > 100 | > 100 | > 100 | > 100 | > 100 | > 100 | > 100 | > 100 | > 100 | > 100 | > 100 |

| Compound | TGI (HS 578T breast) [µM] | TGI (SF-268 CNS) [µM] | TGI (U251 CNS) [µM] | TGI (BT-549 breast) [µM] | TGI (RPMI-8226 leukemia) [µM] | TGI (UO-31 renal) [µM] | TGI (SK-MEL-5 melanoma) [µM] | TGI (MDA-N) [µM] | TGI (MCF7 breast) [µM] | TGI (MDA-MB-231 breast) [µM] | TGI (ACHN renal) [µM] |
| --- | --- | --- | --- | --- | --- | --- | --- | --- | --- | --- | --- |
| Nc1ccccc1OCCCOc1ccccc1N | > 100 | > 100 | > 100 | > 100 | > 100 | > 100 | > 100 | > 100 | > 100 | > 100 | > 100 |
| CCN(CC)C1Oc2cc3c(cc2C(c2cccc(OC)c2O)C1C)OCO3 (stereo unspecified) | 18.7 | > 54 | 17.9 | > 44.9 | 13.6 | 49.5 | 13.6 | 5.82 | > 46 | > 49.7 | 40.4 |
| CC(=O)N1C(Nc2cccc3nc(C)ccc23)CCN1c1ccccc1 (stereo unspecified) | > 10 | > 10 |  | > 10 | > 10 | > 10 | > 10 | > 10 | > 10 | > 10 | > 10 |
| O=C1C=C(O)c2c(O)ccc(O)c2C1=O | > 100 | > 100 | > 100 | > 100 | > 100 | > 100 | > 100 | > 100 | > 100 | > 100 | > 100 |
| O=c1c2cc(I)ccc2nc(SCc2nnco2)n1Cc1ccccc1 | > 100 | > 100 | > 100 | > 100 | > 100 | 2.87 | > 100 | > 100 | > 100 | > 100 | > 100 |
| CC(=O)O[C@H]1C[C@](C)(O)[C@@]23CC([C@@H](OC(=O)C(C)(C)O)[C@@H](OC(C)=O)C2(COC(=O)c2ccccc2)[C@H]1OC(C)=O)C(C)(C)O3 (stereo partly specified) | > 100 | > 100 | > 100 | > 100 | > 100 | > 100 | > 100 | > 100 | > 100 | > 100 | > 100 |
| CC1C(C#N)(C#N)C(C#N)=C(N)C1(C)[N+](=O)[O-] (stereo unspecified) | > 100 | > 100 | > 100 | > 100 | > 100 | > 100 | > 100 | > 100 | > 100 | > 100 | > 100 |
| CC1CCOc2ccc(cc2)C=Nc2ccc(cc2)-c2ccc(cc2)N=Cc2ccc(cc2)OCC1 (stereo unspecified) | > 100 | > 100 | > 100 | > 100 | > 100 | > 100 | > 100 | > 100 | > 100 | > 100 | > 100 |
| Cc1cn([C@@H]2C[C@H](CO)[C@@H]2O)c(=O)[nH]c1=O | > 100 | > 100 | > 100 | > 100 | > 100 | > 100 | > 100 | > 100 | > 100 | > 100 | > 100 |
| NC1=Nc2ccccc2Sc2nc3ccccc3n21 | > 100 | > 100 | > 100 | > 100 | > 100 | 40.9 | > 100 | > 100 | > 100 | > 100 | > 100 |
| CN(C)CC1CCCc2ccccc2C1=O (stereo unspecified) | 16.3 | 5.55 | 3.12 | 9.8 | 0.21 | 3.45 | 15.9 | 3.07 | 0.644 | 9.7 | 3.3 |
| O=C1CC(C(COCc2ccccc2)OCc2ccccc2)CC(=O)N1 (stereo unspecified) | > 100 | > 100 | > 100 | > 100 | > 100 | > 100 | > 100 | > 100 | > 100 | > 100 | > 100 |
| C1=CN2C[n+]3ccc4ccccc4c3N=C2c2ccccc21 | 30.4 | 8.35 | 10.2 | 20.9 | 11.8 | 69.3 | 1.5 | 7.59 | 3.71 | 23.6 | 70.5 |
| COc1cc([C@@H]2c3cc4c(cc3[C@@H](c3c(O)cc(O)c5c3O[C@H](c3ccc(O)c(O)c3)[C@H](OC(=O)c3cc(O)c(O)c(O)c3)C5)[C@H]3COC(=O)[C@H]23)OCO4)cc(OC)c1O | > 100 | > 100 | > 100 | > 100 | > 100 |  | 78.4 | > 100 | > 100 | > 100 | > 100 |
| CC(C)=CCC[C@@H](C)C1=CC(=O)C(C)=C(O)C1=O | 21.1 | 24.3 | 38.7 | 18.1 | 5.64 | 13.5 | 16.4 | 16.6 | 16 | 18.1 | 10.8 |
| O=C1O[C@H]2C3C4CCC(C4[C@@H]2I)[C@H]13 (stereo partly specified) | > 100 | > 100 | > 100 | > 100 | > 100 | > 100 | > 100 | > 100 | > 100 | > 100 | > 100 |
| COc1cc(/C=C/C(=N\NC(=S)NN)c2sc(NNC(C)=O)nc2C)ccc1O | > 100 | > 100 | > 100 | > 100 | > 100 | > 100 | > 100 | > 100 | > 100 | > 100 | > 100 |
